For this test, the system named is Ad5 hexon protein. The test can be described thus: FACS analysis of Ad5 hexon protein expression in A549 cells. The format is cell-based, human adenovirus. The note with it: 24 h. As for the experimental part:
FIG. 4. A. Binding of ^35S-labelled Ad5 to A549 cells in the presence of A02. Error bars represent the standard deviation of the means from three independent duplicate experiments. B. Flowcytometry assay detecting Ad5 (grey bars) and Ad11 (checkered bars) hexon protein following 24 h incubation with virus and compound A02. Error bars represent the standard deviation of the means from two independent duplicate experiments.
A binding assay using isotope-labeled virions was used to address whether the compound would prevent viral adhesion to host cells. At 15 μM, compound A02 has no effect on Ad5 binding to the surface of A549 cells (FIG. 4A). To further verify inhibition of viral replication, the effect on the expression of the most abundant viral structural protein (hexon) in A549 cells was studied by FACS analysis.

Turning to `O=C(Nc1ccccc1C(=O)Nc1ccccc1C(=O)O)c1ccccc1` [Compound A02, 2-[[2-(Benzoylamino)benzoyl]amino]-benzoic acid], the “expression of Ad5 hexon protein” value was “inhibited by compound A02 in a dose-dependent manner”.

Source of the values: patent US8993622B2, “Antiviral compounds” (Eirium AB, priority 2010, dated 2015).
